Where two headings read alike, the source gives them in different places.
Key:
Assay in all cases: microbe, parasite or virus in culture
Type in all cases: cell-based
[1] = test system: HCV 2a JFH-1 Rluc cells (dicistronic genotype 2a JFH-1 replicon, RLuc reporter); settings: Hepatitis C virus, genotype 2a JFH-1 replicon, read-out: 2a JFH
Description: (§1) Evaluation of cell-based anti-HCV activity: Antiviral potency (EC50) was determined using a Renilla luciferase (RLuc)-based HCV replicon reporter assay. To perform the assay for genotype 1 and 2a JFH-1, HCV 1b RLuc cells (harboring a dicistronic genotype 1b Con1 replicon that encodes a RLuc reporter), or HCV 1a RLuc cells (harboring a dicistronic genotype 1a H77 replicon that encodes a RLuc reporter), or HCV 2a JFH-1 Rluc cells (harboring a dicistronic genotype 2a JFH-1 replicon that encodes a RLuc reporter) were dispensed into 384-well plates. To perform the assay for genotype 2a (with M31 present) or 2b, HCV 2a Rluc or 2b Rluc cells (both with M31 present) harboring a dicistronic NS5A chimeric genotype 2a JFH-1 replicon that encodes a RLuc reporter and either genotype 2a J6 strain NS5A gene or genotype 2b MD2b-1 NS5A gene (based on Los Alamos HCV database isolates, both with M31 present) respectively, were dispensed into 384-well plates. To perform the assay for genotype 3 and 4, HCV 3a RLuc or 4a Rluc cells harboring a dicistronic NS5A chimeric genotype 1b Con1 replicon that encodes a RLuc reporter and either a consensus genotype 3a NS5A gene or genotype 4a NS5A gene (based on Los Alamos HCV database isolates) respectively, were dispensed into 384-well plates. Compounds were re-suspended in DMSO at a concentration of 10 mM and serially diluted in DMSO either manually or using an automated pipeting instrument. Serially diluted compounds were mixed with cell culture media and added to the seeded cells. […] 72 hours later, cells were lysed and Renilla luciferase activity quantified as recommended by the manufacturer (Promega-Madison, Wis.). Non-linear regression was performed to calculate EC50 values.

[2] = test system: HCV 1b RLuc cells (dicistronic genotype 1b Con1 replicon, RLuc reporter); settings: Hepatitis C virus, read-out: 1b (nM)
Description: as §1

[3] = test system: HCV 4a Rluc cells (NS5A chimeric genotype 1b Con1 replicon with genotype 4a NS5A gene); settings: Hepatitis C virus, read-out: 4a
Description: as §1

[4] = test system: HCV 1a RLuc cells (dicistronic genotype 1a H77 replicon, RLuc reporter); settings: Hepatitis C virus, read-out: 1a
Description: as §1

[5] = test system: HCV 3a RLuc cells (NS5A chimeric genotype 1b Con1 replicon with consensus genotype 3a NS5A gene); settings: Hepatitis C virus
Description: as §1

[6] = read-out: 3a, genotype 3a replicon
[7] = 72 h, Table 1, genotype 1a H77 replicon, 72 hours
[8] = read-out: 3a, Table 1, genotype 3a NS5A chimeric replicon
[9] = genotype 1a H77 replicon, RLuc reporter
[10] = read-out: 3a, genotype 3a NS5A chimeric 1b Con1 replicon

Row | Structure (SMILES) | EC50 [1] [nM] | EC50 [2] [nM] | EC50 [3] [nM] | EC50 ([4]; genotype 1a replicon) [nM] | EC50 [5, 6] [nM] | EC50 ([1]; 72 h, Table 1, 72 hours) [nM] | EC50 ([2]; 72 h) [nM] | EC50 [4, 7] [nM] | EC50 [5, 8] [nM] | EC50 ([1]; RLuc reporter) [nM] | EC50 [4, 9] [nM] | EC50 [5, 10] [nM]
1 | COC(=O)NC(C(=O)N1CCC[C@H]1c1ncc(-c2ccc3c(c2)OCc2cc(-c4ccc5nc([C@@H]6[C@H]7CC[C@H](C7)N6C(=O)[C@H](NC(=O)OC)c6ccccc6)[nH]c5c4)ccc2-3)[nH]1)[C@@H](C)OC (stereo in doubt) [Example 294] | 0.001 to 0.999 | 0.01 | 0.001 to 0.99 | 0.001 to 0.999 | 0.001 to 0.99 | – | – | – | – | – | – | –
2 | COC(=O)N[C@H](C(=O)N1CCCC1c1ncc(-c2cc3c4c(c2)OCc2cc(-c5cnc([C@@H]6CCCN6C(=O)[C@@H](NC(=O)OC)C6CCC6)[nH]5)cc(c2-4)OC3)[nH]1)C1CCC1 (stereo in doubt) [Example 376] | 0.001 to 0.999 | 0.02 | 0.001 to 0.99 | 0.001 to 0.999 | 0.001 to 0.99 | – | – | – | – | – | – | –
3 | COC(=O)N[C@H](C(=O)N1CCC[C@H]1c1ncc(-c2ccc3c(c2)COc2c-3ccc3cc(-c4cnc([C@@H]5CCCN5C(=O)[C@H](NC(=O)OC)c5ccccc5)[nH]4)ccc23)[nH]1)C1CCOCC1 [Example 4] | – | – | 0.001 to 0.99 | – | – | 0.001 to 0.999 | 0.11 | 0.001 to 0.999 | 0.001 to 0.99 | – | – | –
4 | COC(=O)N[C@@H](C(=O)N1CCC[C@H]1c1ncc(-c2ccc3c(c2)COc2c-3ccc3cc(-c4cnc([C@@H]5CCCN5C(=O)OCc5ccccc5)[nH]4)ccc23)[nH]1)c1ccccc1 [Example 5] | – | – | 0.001 to 0.99 | – | – | 1 to 44 | 0.037 | > 44 | 0.001 to 0.99 | – | – | –
5 | COC(=O)N[C@H](C(=O)N1CCC[C@H]1c1ncc(-c2ccc3c(c2)COc2c-3ccc3cc(-c4cnc([C@@H]5CCCN5C(=O)OCc5ccccc5)[nH]4)ccc23)[nH]1)C1CCOCC1 [Example 6] | – | – | 0.001 to 0.99 | – | – | 1 to 44 | 0.051 | 1 to 44 | > 5 | – | – | –
6 | COC(=O)N[C@@H](C)C(=O)N1CCC[C@H]1c1ncc(-c2ccc3c(c2)COc2c-3ccc3cc(-c4cnc([C@@H]5CCCN5C(=O)[C@H](NC(=O)OC)c5ccccc5)[nH]4)ccc23)[nH]1 [Example 7] | – | – | 0.001 to 0.99 | – | – | 0.001 to 0.999 | 0.008 | 0.001 to 0.999 | 0.001 to 0.99 | – | – | –
7 | COC(=O)NC(C(=O)N1CCC[C@@H]1c1ncc(-c2cc3c4c(c2)OCc2cc(-c5cnc([C@@H]6CCCN6C(=O)[C@@H](NC(=O)OC)C(C)C)[nH]5)cc(c2-4)OC3)[nH]1)C(C)C (some centres unmarked) [Example 10] | – | – | 0.001 to 0.99 | – | – | 0.001 to 0.999 | 0.406 | 1 to 44 | 0.001 to 0.99 | – | – | –
8 | COC(=O)N[C@H](C(=O)N1CCC[C@H]1c1ncc(-c2ccc3c(c2)COc2c-3ccc3cc(-c4cnc([C@@H]5CCCN5C(=O)[C@H](NC(=O)OC)c5ccccc5)[nH]4)ccc23)[nH]1)[C@@H](C)OC [Example 14] | – | – | 0.001 to 0.99 | – | – | 0.001 to 0.999 | 0.01 | 0.001 to 0.999 | 0.001 to 0.99 | – | – | –
9 | COC(=O)N[C@H](C(=O)N1CCC[C@H]1c1ncc(-c2ccc3c(c2)COc2c-3ccc3cc(-c4cnc([C@@H]5CCCN5C(=O)[C@@H](NC(=O)OC)[C@@H](C)OC)[nH]4)ccc23)[nH]1)C1CCOCC1 [Example 15] | – | – | 0.001 to 0.99 | – | – | 0.001 to 0.999 | 0.026 | 0.001 to 0.999 | 0.001 to 0.99 | – | – | –
10 | COC(=O)N[C@H](C(=O)N1CCC[C@H]1c1ncc(-c2ccc3c(c2)COc2c-3ccc3cc(-c4cnc([C@@H]5CCCN5C(=O)[C@@H](NC(=O)OC)[C@@H](C)OC)[nH]4)ccc23)[nH]1)[C@@H](C)OC [Example 17] | – | – | 0.001 to 0.99 | – | – | 0.001 to 0.999 | 0.014 | 0.001 to 0.999 | > 5 | – | – | –
11 | COC(=O)N[C@H](C(=O)N1CCC[C@H]1c1ncc(-c2ccc3c4ccc(-c5cnc([C@@H]6CCCN6C(=O)[C@@H](NC(=O)OC)C(C)C)[nH]5)cc4c4nccnc4c3c2)[nH]1)C(C)C [Example 18] | – | – | 0.001 to 0.99 | – | – | 0.001 to 0.999 | 0.018 | 0.001 to 0.999 | 1 to 4.99 | – | – | –
12 | COC(=O)N[C@H](C(=O)N1CCC[C@H]1c1ncc(-c2ccc3c4ccc(-c5cnc([C@@H]6CCCN6C(=O)[C@@H](NC(=O)OC)C(C)C)[nH]5)cc4c4nc5ccccc5nc4c3c2)[nH]1)C(C)C [Example 19] | – | – | 0.001 to 0.99 | – | – | 1 to 44 | 0.01 | 1 to 44 | > 5 | – | – | –
13 | COC(=O)N[C@H](C(=O)N1CCC[C@H]1c1ncc(-c2cc3c4c(c2)CCc2cc(-c5cnc([C@@H]6CCCN6C(=O)[C@@H](NC(=O)OC)C(C)C)[nH]5)cc(c2-4)CC3)[nH]1)C(C)C [Example 20] | – | – | 0.001 to 0.99 | – | – | 0.001 to 0.999 | 0.021 | 0.001 to 0.999 | 0.001 to 0.99 | – | – | –
14 | COC(=O)NC(C(=O)N1CCC[C@H]1c1ncc(-c2cc3c4c(c2)CCc2cc(-c5cnc([C@@H]6CCCN6C(=O)[C@@H](NC(=O)OC)[C@@H](C)OC)[nH]5)cc(c2-4)CC3)[nH]1)[C@@H](C)OC (some centres unmarked) [Example 21] | – | – | 0.001 to 0.99 | – | – | 0.001 to 0.999 | 0.06 | 0.001 to 0.999 | 0.001 to 0.99 | – | – | –
15 | COC(=O)N[C@H](C(=O)N1CCC[C@H]1c1ncc(-c2cc3c4c(c2)CCc2cc(-c5cnc([C@@H]6CCCN6C(=O)[C@@H](NC(=O)OC)C6CCOCC6)[nH]5)cc(c2-4)CC3)[nH]1)C(C)C [Example 23] | – | – | 0.001 to 0.99 | – | – | 0.001 to 0.999 | 0.067 | 0.001 to 0.999 | 0.001 to 0.99 | – | – | –
16 | COC(=O)NC(C(=O)N1CCC[C@H]1c1ncc(-c2ccc3c(c2)C(F)(F)c2cc(-c4ccc(-c5cnc([C@@H]6CCCN6C(=O)[C@H](NC(=O)OC)c6ccccc6)[nH]5)cc4)ccc2-3)[nH]1)C(C)C (some centres unmarked) [Example 194] | – | 0.01 | – | – | – | – | – | – | – | 1 to 44 | 1 to 44 | 1 to 4.99
17 | COC(=O)N[C@H](C(=O)N1CCC[C@H]1c1nc2c([nH]1)-c1ccc(-c3ccc4cc(-c5cnc([C@@H]6CCCN6C(=O)[C@@H](NC(=O)OC)C6CCOCC6)[nH]5)ccc4c3)cc1CC2)C(C)C [Example 209] | – | 0.014 | – | – | – | – | – | – | – | 0.001 to 0.999 | 0.001 to 0.999 | 0.001 to 0.99
18 | COC(=O)N[C@H](C(=O)N1CCC[C@H]1c1nc2c([nH]1)-c1ccc(-c3ccc4cc(-c5cnc([C@@H]6CCCN6C(=O)[C@H](NC(=O)OC)c6ccccc6)[nH]5)ccc4c3)cc1CC2)C(C)C [Example 210] | – | 0.008 | – | – | – | – | – | – | – | 0.001 to 0.999 | 0.001 to 0.999 | 0.001 to 0.99
19 | COC(=O)N[C@H](C(=O)N1CCC[C@H]1c1nc2c([nH]1)-c1ccc(-c3ccc4cc(-c5cnc([C@@H]6COCCN6C(=O)[C@H](NC(=O)OC)c6ccccc6)[nH]5)ccc4c3)cc1CC2)C(C)C [Example 211] | – | 0.009 | – | – | – | – | – | – | – | 1 to 44 | 0.001 to 0.999 | 1 to 4.99
20 | COC(=O)N[C@H](C(=O)N1CCC[C@H]1c1ncc(-c2ccc3cc(-c4ccc(-c5cnc([C@@H]6CCCN6C(=O)[C@H](NC(=O)CC6CCOCC6)c6ccccc6)[nH]5)cc4)ccc3c2)[nH]1)C(C)C [Example 212] | – | 0.018 | – | – | – | – | – | – | – | 0.001 to 0.999 | 0.001 to 0.999 | 0.001 to 0.99
21 | COC(=O)N[C@@H](CC1CCOCC1)C(=O)N1CCC[C@H]1c1ncc(-c2ccc3cc(-c4ccc(-c5cnc([C@@H]6CCCN6C(=O)[C@H](NC(=O)OC)c6ccccc6)[nH]5)cc4)ccc3c2)[nH]1 [Example 213] | – | 0.03 | – | – | – | – | – | – | – | 0.001 to 0.999 | 0.001 to 0.999 | 0.001 to 0.99
22 | COC(=O)NC(C(=O)N1C[C@H](C)C[C@H]1c1ncc(-c2ccc(-c3ccc4cc(-c5cnc([C@@H]6CCCN6C(=O)[C@@H](NC(=O)OC)C6CCOCC6)[nH]5)ccc4c3)cc2)[nH]1)c1cccnc1 (some centres unmarked) [Example 214] | – | 0.06 | – | – | – | – | – | – | – | 0.001 to 0.999 | 0.001 to 0.999 | 0.001 to 0.99
23 | COC(=O)N[C@@H](C)C(=O)N1CCC[C@H]1c1nc2c([nH]1)-c1ccc(-c3ccc4cc(-c5cnc([C@@H]6CCCN6C(=O)[C@H](NC(=O)OC)c6ccccc6)[nH]5)ccc4c3)cc1CC2 [Example 272] | – | – | 1 to 4.99 | – | – | – | – | – | – | > 44 | > 44 | > 5

From US10344019B2 (priority 2010, dated 2019)
